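In this assay, cells in 96-well plates receive the compound at five concentrations for 48 hours. Endpoints are linearly interpolated between the surrounding concentrations. GI50 = concentration required for 50% inhibition of growth. TGI: total growth inhibition.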

Some test systems named below: A549 NSCLC; HCC-2998 colon; SF-268 CNS; K-562 leukemia; NCI-H226 lung; OVCAR-8 ovarian; COLO 205 colon; SK-MEL-5 melanoma; NCI/ADR-RES ovarian; HOP-62 NSCLC; BT-549 breast; SK-MEL-2 melanoma; NCI-H23 lung; MDA-MB-435; EKVX NSCLC; NCI-H522 lung; DMS 273 small cell lung.
Common to all, as to test: NCI tumour cell line growth inhibition, 48 h

As for `CCCCOP(C)(=O)C(NC(=O)OCC)(C(F)(F)F)C(F)(F)F` (stereo not given), the TGI with A549 NSCLC, in the assay with HCC-2998 colon, in the assay with SF-268 CNS, with K-562 leukemia, in the assay with NCI-H226 lung and in the assay on OVCAR-8 ovarian was greater than 100 µM throughout. The TGI in the assay with COLO 205 colon, in the assay on SK-MEL-5 melanoma, with NCI/ADR-RES ovarian, in the assay on HOP-62 NSCLC, with BT-549 breast and with SK-MEL-2 melanoma was greater than 100 µM in each case. Also, the TGI with NCI-H23 lung, with MDA-MB-435, in the assay on EKVX NSCLC and with NCI-H522 lung was greater than 100 µM in each case.

Turning to `CC(C)c1ccccc1SCc1cc(=O)cc(CSc2ccccc2C(C)C)o1`, the TGI in the assay on A549 NSCLC was greater than 100 µM; in the assay on HCC-2998 colon, 84.5 µM; in the assay on SF-268 CNS it was 33.4 µM; with K-562 leukemia it was greater than 100 µM; with NCI-H226 lung it was 41.7 µM; with OVCAR-8 ovarian it was 54.9 µM. In addition, the TGI in the assay with COLO 205 colon was greater than 100 µM; with SK-MEL-5 melanoma it was greater than 100 µM; with NCI/ADR-RES ovarian, 41.5 µM; in the assay with HOP-62 NSCLC it was 43.6 µM; with SK-MEL-2 melanoma, 34.5 µM; in the assay on NCI-H23 lung, greater than 100 µM. Also, the TGI in the assay with MDA-MB-435 worked out at 32.8 µM; in the assay on EKVX NSCLC, 38.4 µM.

With `C=C=CC(NC(=O)c1ccccc1)(C(=O)O)C(F)(F)F` (stereo not given), the TGI with A549 NSCLC, with HCC-2998 colon, with DMS 273 small cell lung, in the assay on SF-268 CNS, in the assay on K-562 leukemia and in the assay with NCI-H226 lung was greater than 100 µM each time. The TGI with OVCAR-8 ovarian, in the assay on COLO 205 colon, in the assay with SK-MEL-5 melanoma, in the assay with SK-MEL-2 melanoma, in the assay with NCI-H23 lung and in the assay with EKVX NSCLC was greater than 100 µM each time.

For `Cc1cccc(N2C(=O)C3c4[nH]c5ccc(C)cc5c4C4CCC(C(C)(C)C)CC4C3C2=O)c1` (stereo not given), the TGI was 60.7 µM with A549 NSCLC; 34.9 µM in the assay with SF-268 CNS; greater than 100 µM with K-562 leukemia; 36.5 µM in the assay on NCI-H226 lung; 47.7 µM in the assay with OVCAR-8 ovarian; greater than 100 µM in the assay with COLO 205 colon. Further, the TGI in the assay with SK-MEL-5 melanoma was greater than 100 µM; in the assay on NCI/ADR-RES ovarian, 48.5 µM; in the assay on HOP-62 NSCLC it was 30.9 µM; in the assay with BT-549 breast it was greater than 100 µM; in the assay on SK-MEL-2 melanoma it was greater than 100 µM; with NCI-H23 lung, greater than 100 µM. Also, the TGI in the assay on MDA-MB-435 is greater than 100 µM; in the assay with EKVX NSCLC, 85.6 µM; in the assay on NCI-H522 lung, 45.7 µM.

Consider `CC12CCC(CC1)C(C)(C)O2`, for which the results for the GI50 with A549 NSCLC, in the assay on K-562 leukemia and with NCI-H226 lung were 6.75 µM, 37.9 µM and 6.25 µM, respectively. The TGI in the assay on A549 NSCLC worked out at 79.7 µM; with HCC-2998 colon, 97.7 µM; with DMS 273 small cell lung, 18.3 µM; in the assay with SF-268 CNS it was 119 µM; with K-562 leukemia it was 183 µM; in the assay with NCI-H226 lung it was 42.4 µM. The TGI in the assay with OVCAR-8 ovarian was found to be 133 µM; in the assay with COLO 205 colon it was 99.6 µM; in the assay with SK-MEL-5 melanoma it was 21.8 µM; with NCI/ADR-RES ovarian, 266 µM; with HOP-62 NSCLC it was 52.2 µM; in the assay with SK-MEL-2 melanoma, 118 µM. The TGI with NCI-H23 lung is 121 µM; in the assay with EKVX NSCLC, 104 µM; with NCI-H522 lung it was 77.3 µM.

As to `CSc1nc(N)c2c(-c3ccccc3)c3c(nc2n1)CCCC3`, the TGI in the assay with A549 NSCLC, in the assay with K-562 leukemia, in the assay on OVCAR-8 ovarian, in the assay with COLO 205 colon, in the assay on SK-MEL-5 melanoma and in the assay on NCI/ADR-RES ovarian was greater than 100 µM in each case. The TGI with HOP-62 NSCLC, with BT-549 breast, with NCI-H23 lung, in the assay on MDA-MB-435 and with EKVX NSCLC was greater than 100 µM throughout.

With `C=C1C(=O)OC2CC(C)C3C4OC4C(O)C3(C)C(O)C12` (stereo not given), the TGI in the assay with A549 NSCLC was 121 µM; in the assay on HCC-2998 colon, 75.8 µM; with DMS 273 small cell lung, 67.2 µM; in the assay on SF-268 CNS, 71.7 µM; in the assay on K-562 leukemia it was 91.6 µM; in the assay with NCI-H226 lung it was greater than 68 µM. Further, the TGI with OVCAR-8 ovarian worked out at 91.6 µM; in the assay on COLO 205 colon, 51.6 µM; in the assay on SK-MEL-5 melanoma it was 87.1 µM; in the assay with NCI/ADR-RES ovarian, 91.9 µM; with HOP-62 NSCLC it was 127 µM; in the assay with SK-MEL-2 melanoma, 72.7 µM. Further, the figures for the TGI in the assay on NCI-H23 lung, in the assay on EKVX NSCLC and in the assay on NCI-H522 lung were 55.5 µM, 63.9 µM and 26.4 µM, respectively.

Turning to `COc1ccc(-c2c(-c3ccccc3)c(C)nc3nc(SC)nc(SC)c23)cc1OC`, the TGI is greater than 100 µM in the assay on A549 NSCLC; greater than 100 µM in the assay on HCC-2998 colon; greater than 100 µM in the assay on SF-268 CNS; 32 µM in the assay with K-562 leukemia; 82.9 µM in the assay with NCI-H226 lung; 27.9 µM with COLO 205 colon. In addition, the TGI in the assay with SK-MEL-5 melanoma was 27.8 µM; in the assay with HOP-62 NSCLC it was 40.5 µM; in the assay with BT-549 breast, greater than 100 µM; with SK-MEL-2 melanoma it was 60.6 µM; with NCI-H23 lung, greater than 100 µM; in the assay with MDA-MB-435, greater than 100 µM. Besides, the results for the TGI in the assay with EKVX NSCLC and in the assay on NCI-H522 lung were greater than 100 µM and 35.4 µM, respectively.

These data come from PubChem BioAssay (NCI).
